Measurements published in PubChem BioAssay AID2060885 (Molecular Pharmacology Branch, DTP, NCI, 2025).
pIC50: −log10 of the molar value.

Tested on: NCI-H23 complex spheroids with HUVEC/MSC, viability
Assay: Anticancer human tumor NCI-H23 cell line growth inhibition [RAS];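 note: spheroids exposed to compound for 7 days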;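 for viability, T/C: 100% = DMSO vehicle control viability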
Settings: for pIC50: curve of first compound; for viability, T/C: stronger effect = lower value; active = viability on the fitted dose curve at most 10% of control; inactive = the rest
Summary of the method: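 Multi-cell-type spheroids: tumor cells plus HUVEC endothelial cells and mesenchymal stem cells. RAS-pathway inhibitors were combined with targeted agents, each dosed in half-log steps down from clinical Cmax, or from 10 microM when Cmax was unknown.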

[1] = second compound 0.000949 µM, first compound 0.00316 µM
[2] = second compound 0.000949 µM, first compound 0.01 µM
[3] = second compound 0.000949 µM, first compound 0.0316 µM
[4] = second compound 0.000949 µM, first compound 0.1 µM
[5] = second compound 0.000949 µM, first compound 0.316 µM
[6] = second compound 0.000949 µM, first compound 1 µM
[7] = second compound 0.003 µM, first compound 0.00316 µM
[8] = second compound 0.003 µM, first compound 0.01 µM
[9] = second compound 0.003 µM, first compound 0.0316 µM
[10] = second compound 0.003 µM, first compound 0.1 µM
[11] = second compound 0.003 µM, first compound 0.316 µM
[12] = second compound 0.003 µM, first compound 1 µM
[13] = second compound 0.00949 µM, first compound 0.00316 µM
[14] = second compound 0.00949 µM, first compound 0.01 µM
[15] = second compound 0.00949 µM, first compound 0.0316 µM
[16] = second compound 0.00949 µM, first compound 0.1 µM
[17] = second compound 0.00949 µM, first compound 0.316 µM
[18] = second compound 0.00949 µM, first compound 1 µM
[19] = second compound 0.03 µM, first compound 0.00316 µM
[20] = second compound 0.03 µM, first compound 0.01 µM
[21] = second compound 0.03 µM, first compound 0.0316 µM
[22] = second compound 0.03 µM, first compound 0.1 µM
[23] = second compound 0.03 µM, first compound 0.316 µM
[24] = second compound 0.03 µM, first compound 1 µM
[25] = second compound 0.0949 µM, first compound 0.00316 µM
[26] = second compound 0.0949 µM, first compound 0.01 µM
[27] = second compound 0.0949 µM, first compound 0.0316 µM
[28] = second compound 0.0949 µM, first compound 0.1 µM
[29] = second compound 0.0949 µM, first compound 0.316 µM
[30] = second compound 0.0949 µM, first compound 1 µM
[31] = second compound 0.3 µM, first compound 0.00316 µM
[32] = second compound 0.3 µM, first compound 0.01 µM
[33] = second compound 0.3 µM, first compound 0.0316 µM
[34] = second compound 0.3 µM, first compound 0.1 µM
[35] = second compound 0.3 µM, first compound 0.316 µM
[36] = second compound 0.3 µM, first compound 1 µM
[37] = second compound 0.000949 µM, first compound 3.16 µM
[38] = second compound 0.000949 µM, first compound 10 µM
[39] = second compound 0.003 µM, first compound 3.16 µM
[40] = second compound 0.003 µM, first compound 10 µM
[41] = second compound 0.00949 µM, first compound 3.16 µM
[42] = second compound 0.00949 µM, first compound 10 µM
[43] = second compound 0.03 µM, first compound 3.16 µM
[44] = second compound 0.03 µM, first compound 10 µM
[45] = second compound 0.0949 µM, first compound 3.16 µM
[46] = second compound 0.0949 µM, first compound 10 µM
[47] = second compound 0.3 µM, first compound 3.16 µM
[48] = second compound 0.3 µM, first compound 10 µM

C=CC(=O)Nc1cc(Nc2nccc(-c3cn(C)c4ccccc34)n2)c(OC)cc1N(C)CCN(C)C + CCn1c(-c2cccnc2C(C)OC)c2c3cc(ccc31)N1CCOC(CC(NC(=O)C(C(C)C)N(C)C(=O)C3(F)CCN(C(=O)C#CC(C)(C)N(C)C)CC3)C(=O)N3CCCC(N3)C(=O)OCC(C)(C)C2)C1
6.14: pIC50 (second compound 0.003 µM)
> 8.50: pIC50 (second compound 0.000949 µM) | pIC50 (second compound 0.00949 µM) | pIC50 (second compound 0.03 µM) | pIC50 (second compound 0.0949 µM) | pIC50 (second compound 0.3 µM)
inactive: viability, T/C [1] 38.8% | viability, T/C [2] 38.4% | viability, T/C [3] 29% | viability, T/C [4] 28.6% | viability, T/C [5] 25.8% | viability, T/C [6] 20.1% | viability, T/C [7] 99.9% | viability, T/C [8] 44.7% | viability, T/C [9] 101% | viability, T/C [10] 120% | viability, T/C [11] 102% | viability, T/C [12] 32.5% | viability, T/C [13] 35.5% | viability, T/C [14] 28.9% | viability, T/C [15] 31.1% | viability, T/C [16] 30.5% | viability, T/C [17] 23.9% | viability, T/C [18] 22.2% | viability, T/C [19] 31.2% | viability, T/C [20] 26.7% | viability, T/C [21] 30.9% | viability, T/C [22] 30.9% | viability, T/C [23] 18.3% | viability, T/C [24] 23.1% | viability, T/C [25] 27.1% | viability, T/C [26] 28.6% | viability, T/C [27] 31% | viability, T/C [28] 26.7% | viability, T/C [29] 19.2% | viability, T/C [30] 21.6% | viability, T/C [31] 25.5% | viability, T/C [32] 26.7% | viability, T/C [33] 24.6% | viability, T/C [34] 23% | viability, T/C [35] 22.9% | viability, T/C [36] 21.6%

CC(C)NCC(C(=O)N1CCN(c2ncnc3c2C(C)CC3O)CC1)c1ccc(Cl)cc1 (stereo not drawn) + CCn1c(-c2cccnc2C(C)OC)c2c3cc(ccc31)N1CCOC(CC(NC(=O)C(C(C)C)N(C)C(=O)C3(F)CCN(C(=O)C#CC(C)(C)N(C)C)CC3)C(=O)N3CCCC(N3)C(=O)OCC(C)(C)C2)C1
> 7.50: pIC50 (second compound 0.000949 µM) | pIC50 (second compound 0.003 µM) | pIC50 (second compound 0.00949 µM) | pIC50 (second compound 0.03 µM) | pIC50 (second compound 0.0949 µM) | pIC50 (second compound 0.3 µM)
inactive: viability, T/C [3] 33.6% | viability, T/C [4] 35.1% | viability, T/C [5] 23.7% | viability, T/C [6] 23.4% | viability, T/C [37] 17.5% | viability, T/C [38] 11.6% | viability, T/C [9] 33.8% | viability, T/C [10] 27.3% | viability, T/C [11] 22% | viability, T/C [12] 18.7% | viability, T/C [39] 18.1% | viability, T/C [40] 10.3% | viability, T/C [15] 28.9% | viability, T/C [16] 24.2% | viability, T/C [17] 25.3% | viability, T/C [18] 19.6% | viability, T/C [41] 14.9% | viability, T/C [42] 12.3% | viability, T/C [21] 30.9% | viability, T/C [22] 25.3% | viability, T/C [23] 25.2% | viability, T/C [24] 20.4% | viability, T/C [43] 13.8% | viability, T/C [44] 12.3% | viability, T/C [27] 24.3% | viability, T/C [28] 26.8% | viability, T/C [29] 22.6% | viability, T/C [30] 19.6% | viability, T/C [45] 13.3% | viability, T/C [46] 12.5% | viability, T/C [33] 21.4% | viability, T/C [34] 23.2% | viability, T/C [35] 22% | viability, T/C [36] 16.6% | viability, T/C [47] 11.6% | viability, T/C [48] 13.5%

CC(Nc1ccc2c(c1)OCCn1cc(N3C(=O)OCC3C(F)F)nc1-2)C(N)=O (stereo not drawn) + CCn1c(-c2cccnc2C(C)OC)c2c3cc(ccc31)N1CCOC(CC(NC(=O)C(C(C)C)N(C)C(=O)C3(F)CCN(C(=O)C#CC(C)(C)N(C)C)CC3)C(=O)N3CCCC(N3)C(=O)OCC(C)(C)C2)C1
> 7.50: pIC50 (second compound 0.000949 µM) | pIC50 (second compound 0.003 µM) | pIC50 (second compound 0.00949 µM) | pIC50 (second compound 0.03 µM) | pIC50 (second compound 0.0949 µM) | pIC50 (second compound 0.3 µM)
inactive: viability, T/C [3] 29.1% | viability, T/C [4] 22.3% | viability, T/C [5] 21% | viability, T/C [6] 23.1% | viability, T/C [37] 21.2% | viability, T/C [38] 14% | viability, T/C [9] 28.8% | viability, T/C [10] 23.6% | viability, T/C [11] 19.2% | viability, T/C [12] 21% | viability, T/C [39] 21.1% | viability, T/C [40] 13.9% | viability, T/C [15] 28.1% | viability, T/C [16] 21.2% | viability, T/C [17] 20.8% | viability, T/C [18] 19.1% | viability, T/C [41] 18.2% | viability, T/C [42] 14.7% | viability, T/C [21] 23.1% | viability, T/C [22] 24.4% | viability, T/C [23] 20.3% | viability, T/C [24] 18.3% | viability, T/C [43] 17% | viability, T/C [44] 16% | viability, T/C [27] 24.7% | viability, T/C [28] 21.1% | viability, T/C [29] 22.5% | viability, T/C [30] 20.7% | viability, T/C [45] 13.8% | viability, T/C [46] 16.6% | viability, T/C [33] 22.4% | viability, T/C [34] 21.3% | viability, T/C [35] 20.1% | viability, T/C [36] 15% | viability, T/C [47] 16.7% | viability, T/C [48] 14.9%

O=C(c1ccc(F)c(F)c1Nc1ccc(I)cc1F)N1CC(O)([C@@H]2CCCCN2)C1 + CCn1c(-c2cccnc2C(C)OC)c2c3cc(ccc31)N1CCOC(CC(NC(=O)C(C(C)C)N(C)C(=O)C3(F)CCN(C(=O)C#CC(C)(C)N(C)C)CC3)C(=O)N3CCCC(N3)C(=O)OCC(C)(C)C2)C1
7.59: pIC50 (second compound 0.003 µM)
> 8.50: pIC50 (second compound 0.000949 µM) | pIC50 (second compound 0.00949 µM) | pIC50 (second compound 0.03 µM) | pIC50 (second compound 0.0949 µM) | pIC50 (second compound 0.3 µM)
active: viability, T/C [6] 6.86% | viability, T/C [18] 8.22% | viability, T/C [24] 9.45% | viability, T/C [30] 9.76% | viability, T/C [36] 9.07%
inactive: viability, T/C [1] 32.3% | viability, T/C [2] 33.2% | viability, T/C [3] 26.2% | viability, T/C [4] 31.8% | viability, T/C [5] 16.7% | viability, T/C [7] 112% | viability, T/C [8] 54.8% | viability, T/C [9] 51.7% | viability, T/C [10] 42.8% | viability, T/C [11] 27.8% | viability, T/C [12] 10.3% | viability, T/C [13] 34.5% | viability, T/C [14] 25.4% | viability, T/C [15] 29.8% | viability, T/C [16] 25.9% | viability, T/C [17] 14.6% | viability, T/C [19] 30.1% | viability, T/C [20] 30.7% | viability, T/C [21] 28.3% | viability, T/C [22] 25.4% | viability, T/C [23] 12.6% | viability, T/C [25] 29.1% | viability, T/C [26] 30.2% | viability, T/C [27] 30.9% | viability, T/C [28] 22.3% | viability, T/C [29] 11% | viability, T/C [31] 29.4% | viability, T/C [32] 26.3% | viability, T/C [33] 26.5% | viability, T/C [34] 19.8% | viability, T/C [35] 11%
